Measurements reported in paper PMC4306942, “Asperlones A and B, Dinaphthalenone Derivatives from a Mangrove Endophytic Fungus Aspergillus sp. 16-5C” (Marine Drugs, 2015).

Columns and labels:
[1] = target: T1, Mycobacterium tuberculosis protein tyrosine phosphatase B (MptpB) (Mycobacterium tuberculosis, UniProt I6WXK4); test: MptpB inhibition assay (RediPlate 96 EnzChek Tyrosine Phosphatase Assay kit, DiFMUP hydrolysis); format: biochemical; details: for IC50: fluorogenic substrate DiFMUP, average of three independent experiments, read-out: IC50 against MptpB; for inhibitory activity against MptpB (in words): bioassay summary in conclusions
T1 construct: The full-length PTPB gene was amplified from genomic DNA of the Mtb H37Rv strain; His6 (N); made in house; host or cells: Escherichia coli BL21(DH3) (so in the source)
T1 sequence (I6WXK4 whole entry, looked up): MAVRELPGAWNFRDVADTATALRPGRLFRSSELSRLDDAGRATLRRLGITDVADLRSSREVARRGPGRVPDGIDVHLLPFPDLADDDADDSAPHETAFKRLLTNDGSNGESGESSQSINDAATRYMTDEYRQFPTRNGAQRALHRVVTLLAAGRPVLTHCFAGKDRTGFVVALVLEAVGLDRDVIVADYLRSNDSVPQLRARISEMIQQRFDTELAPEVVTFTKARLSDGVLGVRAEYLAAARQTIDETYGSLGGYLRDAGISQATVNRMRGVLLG

Structure (SMILES)	IC50 [1]	inhibitory activity against MptpB (in words) [1]	melting point
O=C1C2=C3C(=CC(=O)c4c(O)cc(O)cc43)OC2(O)Cc2cc(O)cc(O)c21 (racemic) [Compound 2, (±)-asperlone B]	4.32 ± 0.6 µM	strong inhibitory activity	–
[Na+].[Na+].[Na+].[O]=[V]([O-])([O-])[O-] [Positive Control, sodium orthovanadate, reference compound]	0.05 µM	–	–
O=C1C2=C3C(=CC(=O)c4c(O)cccc43)OC2(O)Cc2cc(O)cc(O)c21 (racemic) [Compound 1, (±)-asperlone A]	4.24 ± 0.41 µM	strong inhibitory activity	–
Cc1c(O)c(O)cc(O)c1C(=O)O[C@]1(C)C(=O)C=C2C=C(C=CC(=O)O)OC=C2C1=O [Compound 3, 6″-hydroxy-(R)-mitorubrinic acid]	> 50 µM	–	> 300 °C
Cc1cc(O)cc(O)c1C(=O)O[C@]1(C)C(=O)C=C2C=C(/C=C/C(=O)O)OC=C2C1=O [Compound 5, (−)-mitorubrinic acid]	> 50 µM	–	–
C/C=C/C1=CC2=CC(=O)[C@@](C)(OC(=O)c3c(C)cc(O)cc3O)C(=O)C2=CO1 [Compound 6, (−)-mitorubrin]	3.99 ± 0.34 µM	strong inhibitory activity	–
